Earlier results as cited in EP2392318A1 (Laboratorios Liconsa, S.A., priority 2010, dated 2011).

terminal half-life (after being orally administered): about 2 hours
orally absorbed (in the gastrointestinal tract): about 33%
Compound: CCCCc1nc(Cl)c(CO)n1Cc1ccc(-c2ccccc2-c2nn[nH]n2)cc1 [losartan, 2-butyl-4-chloro-1-[[2'-(1H-tetrazol-5-yl)[1,1'-biphenyl]-4-yl]methyl]-1H-imidazole-5-methanol]
